The source of these data is ChEMBL document CHEMBL5625161, “Pharmacological activity and mechanism of pyrazines” (Eur J Med Chem, 2023).

In one data set the test system is U2OS. Nature of the data set: Cytotoxicity against human U2OS cells assessed as reduction in cell viability incubated for 48 hrs by MTT assay. It is filed as functional, cell-based.
The next data set concerns MG-63. Nature of the data set: Cytotoxicity against human MG-63 cells assessed as reduction in cell viability incubated for 48 hrs by MTT assay. It is filed as functional, cell-based. Particulars: MG-63, 48 h. A general note: Tetrazolium dyes change colour on reduction, which living cells bring about.
The next data set relates to SAOS-2. Nature of the data set: Cytotoxicity against human SAOS-2 cells assessed as reduction in cell viability incubated for 48 hrs by MTT assay. Particulars: SAOS-2, 48 h. It is filed as functional, cell-based.
Data set [1] is described as follows: Antiproliferative activity against mouse […] cells assessed as inhibition of cell growth incubated for 48 hrs by MTT assay. It is filed as functional, cell-based. Particulars: 48 h.
The next data set deals with HeLa. Nature of the data set: Antiproliferative activity against human HeLa cells assessed as reduction in cell viability incubated for 24 hrs by MTT assay. It is filed as functional, cell-based.
For a further data set, the system named is PC-3. The data set is described as follows: Antiproliferative activity against human PC-3 cells assessed as reduction in cell viability incubated for 24 hrs by MTT assay. It is filed as functional, cell-based. Particulars: PC-3, 24 h.
A further data set deals with HT-29. The data set is described as follows: Antiproliferative activity against human HT-29 cells assessed as reduction in cell viability incubated for 24 hrs by MTT assay. The data set is classed as functional, cell-based. Particulars: HT-29, 24 h.
The target in a further data set is Cholinesterase (Homo sapiens, UniProt P06276). Nature of the data set: Inhibition of BchE (unknown origin).
For a further data set, the target named is Acetylcholinesterase (Homo sapiens, UniProt P22303). Nature of the data set: Inhibition of AChE (unknown origin).
In data set [2] the target is T1, Fibroblast growth factor receptor 1 (Homo sapiens, UniProt P11362). Nature of the data set: Inhibition of human recombinant FGFR1 at 1 uM by Enzyme-linked immunosorbent assay relative to control.
Data set [3] concerns the target T1, Fibroblast growth factor receptor 1. Nature of the data set: Inhibition of human recombinant FGFR1 at 10 uM by Enzyme-linked immunosorbent assay relative to control.
Data set [4] can be described thus: Cytotoxicity against African green monkey Vero cells incubated for 48 hrs by SRB colorimetric assay. The data set is classed as toxicity, cell-based, Chlorocebus sabaeus. In general terms: In SRB staining, fixed cells bind dye roughly in proportion to their protein.
For another data set, the system named is HCT-116. Nature of the data set: Antiproliferative activity against human HCT-116 cells assessed reduction in cell growth incubated for 24 hrs by MTT assay. It is filed as functional, cell-based. Particulars: HCT-116, 24 h.
The subject of another data set is A549. The data set is described as follows: Cytotoxicity against human A549 cells assessed as reduction in cell growth incubated for 72 hrs by CCK-8 assay. The data set is classed as functional, cell-based. Particulars: A549, 72 h.
Another data set concerns NCI-H460. The data set is described as follows: Cytotoxicity against human NCI-H460 cells assessed as reduction in cell growth incubated for 72 hrs by CCK-8 assay. Particulars: NCI-H460, 72 h. It is filed as functional, cell-based.
A further data set deals with OVCAR-5. The data set is described as follows: Cytotoxicity against human OVCAR-5 cells assessed as reduction in cell growth incubated for 72 hrs by CCK-8 assay. The data set is classed as functional, cell-based. Particulars: OVCAR-5, 72 h.
The next data set has as its system HEY. Nature of the data set: Cytotoxicity against human HEY cells assessed as reduction in cell growth incubated for 72 hrs by CCK-8 assay. The data set is classed as functional, cell-based.
The subject of another data set is Caco-2. Nature of the data set: Cytotoxicity against human Caco-2 cells assessed as reduction in cell growth incubated for 72 hrs by CCK-8 assay. The data set is classed as functional, cell-based. Particulars: Caco-2, 72 h.
For a further data set, the system named is ES-2. Nature of the data set: Cytotoxicity against human ES2 cells assessed as reduction in cell growth incubated for 72 hrs by CCK-8 assay. It is filed as functional, cell-based. Particulars: ES-2, 72 h.
A further data set concerns SW626. The data set is described as follows: Cytotoxicity against human SW626 cells assessed as reduction in cell growth incubated for 72 hrs by CCK-8 assay. The data set is classed as functional, cell-based. Particulars: SW626, 72 h.
The subject of a further data set is SK-OV-3. Nature of the data set: Cytotoxicity against human SK-OV-3 cells assessed as reduction in cell growth incubated for 72 hrs by CCK-8 assay. It is filed as functional, cell-based. Particulars: SK-OV-3, 72 h.
The subject of another data set is NCI-H1299. Nature of the data set: Cytotoxicity against human NCI-H1299 cells assessed as reduction in cell growth incubated for 72 hrs by CCK-8 assay. The data set is classed as functional, cell-based. Particulars: NCI-H1299, 72 h.
Data set [5] addresses Telomerase reverse transcriptase (Homo sapiens, UniProt O14746). Nature of the data set: Inhibition of telomerase (unknown origin).
The test system of the next data set is HepG2. The data set is described as follows: Cytotoxicity against human HepG2 cells assessed as reduction in cell viability incubated for 72 hrs by MTT assay. The data set is classed as functional, cell-based. Particulars: HepG2, 72 h.
The test system of a further data set is A2780. Nature of the data set: Antiproliferative activity against human A2780 cells assessed as reduction in cell growth incubated for 72 hrs by MTT assay. It is filed as functional, cell-based. Particulars: A2780, 72 h.
In another data set the test system is A-375. Nature of the data set: Cytotoxicity against human A-375 cells assessed as reduction in cell growth measured after 24 hrs by MTT assay. The data set is classed as functional, cell-based. Particulars: A-375, 24 h.
The test system of another data set is FaDu. Nature of the data set: Antiproliferative activity against human FaDu cells assessed as inhibition of cell growth incubated for 72 hrs by 3H-thymidine incorporation assay. The data set is classed as functional, cell-based. Background: Incorporation of labelled thymidine or its analogues reports DNA synthesis.
Another data set deals with Rhizoctonia solani. The data set is described as follows: Antifungal activity Rhizoctonia solani assessed as fungal growth inhibition measured after 4 to 8 days. The data set is classed as functional, organism-based.
For the next data set, the system named is MCF7. Nature of the data set: Antiproliferative activity against human MCF7 cells assessed as inhibition of cell growth at 10 uM incubated for 48 hrs by SRB assay relative to control. It is filed as functional. Also on record: scale not given: the % may be the effect or the level left.
A further data set has as its target Histone deacetylase 1 (Homo sapiens, UniProt Q13547). Nature of the data set: Inhibition of human recombinant HDAC1.
The target of a further data set is Histone deacetylase 2 (Homo sapiens, UniProt Q92769). Nature of the data set: Inhibition of human recombinant HDAC2.
The next data set concerns the target Histone deacetylase 3 (Homo sapiens, UniProt O15379). The data set is described as follows: Inhibition of human recombinant HDAC3.

In brackets after ≈: the same amount, converted by molar mass. A value given as a limit tells only on which side of the number the result lay.

Cholinesterase, sequence (P06276 whole entry): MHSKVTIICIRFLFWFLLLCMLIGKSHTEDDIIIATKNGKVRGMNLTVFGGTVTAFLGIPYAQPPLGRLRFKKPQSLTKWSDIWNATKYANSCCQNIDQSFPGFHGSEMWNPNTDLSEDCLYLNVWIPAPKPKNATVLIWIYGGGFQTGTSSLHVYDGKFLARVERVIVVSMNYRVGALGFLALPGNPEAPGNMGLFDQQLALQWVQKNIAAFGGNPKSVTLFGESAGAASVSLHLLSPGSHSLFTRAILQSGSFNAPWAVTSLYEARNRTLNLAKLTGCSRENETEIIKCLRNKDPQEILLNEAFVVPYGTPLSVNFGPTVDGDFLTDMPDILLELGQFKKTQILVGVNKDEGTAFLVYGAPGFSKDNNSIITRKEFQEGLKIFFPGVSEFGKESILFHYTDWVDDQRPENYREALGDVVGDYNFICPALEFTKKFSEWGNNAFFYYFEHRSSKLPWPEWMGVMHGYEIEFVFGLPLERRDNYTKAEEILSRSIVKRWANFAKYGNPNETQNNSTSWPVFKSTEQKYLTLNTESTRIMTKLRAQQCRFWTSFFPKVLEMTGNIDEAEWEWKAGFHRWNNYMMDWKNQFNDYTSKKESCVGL
T1 sequence (P11362 22-822 limits assumed): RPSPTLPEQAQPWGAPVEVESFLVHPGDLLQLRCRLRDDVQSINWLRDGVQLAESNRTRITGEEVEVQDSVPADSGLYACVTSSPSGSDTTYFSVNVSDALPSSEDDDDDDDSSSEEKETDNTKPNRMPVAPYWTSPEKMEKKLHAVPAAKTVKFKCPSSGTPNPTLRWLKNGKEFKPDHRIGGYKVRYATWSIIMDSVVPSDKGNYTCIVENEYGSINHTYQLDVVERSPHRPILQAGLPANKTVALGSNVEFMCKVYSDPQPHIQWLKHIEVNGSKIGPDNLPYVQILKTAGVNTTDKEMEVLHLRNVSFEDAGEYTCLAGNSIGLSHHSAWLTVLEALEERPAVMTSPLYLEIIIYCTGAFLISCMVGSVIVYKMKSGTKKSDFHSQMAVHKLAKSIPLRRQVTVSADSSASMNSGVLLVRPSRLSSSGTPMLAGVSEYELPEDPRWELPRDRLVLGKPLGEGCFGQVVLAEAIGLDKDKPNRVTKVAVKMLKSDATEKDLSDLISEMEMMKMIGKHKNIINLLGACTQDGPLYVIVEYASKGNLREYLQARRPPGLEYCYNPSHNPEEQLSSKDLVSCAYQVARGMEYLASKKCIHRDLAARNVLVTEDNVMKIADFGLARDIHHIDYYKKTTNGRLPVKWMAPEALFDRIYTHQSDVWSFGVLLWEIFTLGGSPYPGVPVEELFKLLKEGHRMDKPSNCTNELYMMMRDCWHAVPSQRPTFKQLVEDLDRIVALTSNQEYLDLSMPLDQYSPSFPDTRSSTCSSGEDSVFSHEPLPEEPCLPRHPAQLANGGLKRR
Acetylcholinesterase, sequence (P22303 whole entry): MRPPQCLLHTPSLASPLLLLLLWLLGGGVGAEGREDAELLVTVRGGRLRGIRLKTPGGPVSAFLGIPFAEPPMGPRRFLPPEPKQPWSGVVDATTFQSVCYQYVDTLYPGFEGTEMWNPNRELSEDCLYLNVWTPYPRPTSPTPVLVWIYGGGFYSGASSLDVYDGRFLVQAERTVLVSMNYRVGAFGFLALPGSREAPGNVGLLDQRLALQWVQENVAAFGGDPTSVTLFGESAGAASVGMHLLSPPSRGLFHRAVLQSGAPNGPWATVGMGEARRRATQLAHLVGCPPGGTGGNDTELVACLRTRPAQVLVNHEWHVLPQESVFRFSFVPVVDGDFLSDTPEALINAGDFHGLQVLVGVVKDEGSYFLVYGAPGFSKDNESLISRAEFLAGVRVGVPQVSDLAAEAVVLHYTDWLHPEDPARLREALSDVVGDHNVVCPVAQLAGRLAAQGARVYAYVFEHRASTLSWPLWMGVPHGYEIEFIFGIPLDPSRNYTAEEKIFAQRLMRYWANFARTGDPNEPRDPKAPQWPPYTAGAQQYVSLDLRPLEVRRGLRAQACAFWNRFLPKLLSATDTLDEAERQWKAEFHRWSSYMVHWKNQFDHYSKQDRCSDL
Histone deacetylase 2, sequence (Q92769 whole entry): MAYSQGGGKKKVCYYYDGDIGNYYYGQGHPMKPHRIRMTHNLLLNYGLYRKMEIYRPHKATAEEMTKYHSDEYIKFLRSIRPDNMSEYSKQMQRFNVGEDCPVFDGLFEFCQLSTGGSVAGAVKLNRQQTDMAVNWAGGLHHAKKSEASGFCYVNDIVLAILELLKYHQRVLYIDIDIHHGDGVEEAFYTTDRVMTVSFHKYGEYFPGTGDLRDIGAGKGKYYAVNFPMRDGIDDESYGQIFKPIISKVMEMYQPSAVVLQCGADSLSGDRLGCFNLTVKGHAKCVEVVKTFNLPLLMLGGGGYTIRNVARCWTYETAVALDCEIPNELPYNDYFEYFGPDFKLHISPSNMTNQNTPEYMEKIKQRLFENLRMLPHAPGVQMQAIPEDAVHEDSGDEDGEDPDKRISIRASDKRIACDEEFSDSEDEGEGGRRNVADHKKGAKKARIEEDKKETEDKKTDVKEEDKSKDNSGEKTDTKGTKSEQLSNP
Histone deacetylase 1, sequence (Q13547 whole entry): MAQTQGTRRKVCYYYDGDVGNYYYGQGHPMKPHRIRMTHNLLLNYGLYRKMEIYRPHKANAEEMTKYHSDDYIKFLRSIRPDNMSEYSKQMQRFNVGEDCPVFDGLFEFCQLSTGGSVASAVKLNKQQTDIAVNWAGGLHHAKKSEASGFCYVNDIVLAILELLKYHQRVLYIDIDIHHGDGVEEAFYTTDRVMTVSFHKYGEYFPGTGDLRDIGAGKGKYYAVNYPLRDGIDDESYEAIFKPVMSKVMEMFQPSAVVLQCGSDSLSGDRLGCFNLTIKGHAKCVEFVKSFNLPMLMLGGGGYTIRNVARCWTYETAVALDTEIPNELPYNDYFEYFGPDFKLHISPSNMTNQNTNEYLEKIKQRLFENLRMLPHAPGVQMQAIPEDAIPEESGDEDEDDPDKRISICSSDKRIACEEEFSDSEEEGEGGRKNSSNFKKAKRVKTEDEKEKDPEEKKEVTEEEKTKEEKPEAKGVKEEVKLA
Histone deacetylase 3, sequence (O15379 whole entry): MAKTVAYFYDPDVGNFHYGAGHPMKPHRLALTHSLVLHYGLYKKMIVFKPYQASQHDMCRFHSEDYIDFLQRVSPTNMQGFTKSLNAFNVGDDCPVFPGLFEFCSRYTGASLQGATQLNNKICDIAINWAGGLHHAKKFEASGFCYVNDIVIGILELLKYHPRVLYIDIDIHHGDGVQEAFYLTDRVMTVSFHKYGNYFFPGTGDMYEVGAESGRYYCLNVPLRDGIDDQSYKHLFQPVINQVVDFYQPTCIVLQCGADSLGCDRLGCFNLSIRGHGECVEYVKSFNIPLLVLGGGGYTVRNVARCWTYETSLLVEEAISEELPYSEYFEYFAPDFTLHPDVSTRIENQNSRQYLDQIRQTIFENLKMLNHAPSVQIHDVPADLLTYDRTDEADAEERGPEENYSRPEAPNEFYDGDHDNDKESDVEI
Telomerase reverse transcriptase, sequence (O14746 whole entry): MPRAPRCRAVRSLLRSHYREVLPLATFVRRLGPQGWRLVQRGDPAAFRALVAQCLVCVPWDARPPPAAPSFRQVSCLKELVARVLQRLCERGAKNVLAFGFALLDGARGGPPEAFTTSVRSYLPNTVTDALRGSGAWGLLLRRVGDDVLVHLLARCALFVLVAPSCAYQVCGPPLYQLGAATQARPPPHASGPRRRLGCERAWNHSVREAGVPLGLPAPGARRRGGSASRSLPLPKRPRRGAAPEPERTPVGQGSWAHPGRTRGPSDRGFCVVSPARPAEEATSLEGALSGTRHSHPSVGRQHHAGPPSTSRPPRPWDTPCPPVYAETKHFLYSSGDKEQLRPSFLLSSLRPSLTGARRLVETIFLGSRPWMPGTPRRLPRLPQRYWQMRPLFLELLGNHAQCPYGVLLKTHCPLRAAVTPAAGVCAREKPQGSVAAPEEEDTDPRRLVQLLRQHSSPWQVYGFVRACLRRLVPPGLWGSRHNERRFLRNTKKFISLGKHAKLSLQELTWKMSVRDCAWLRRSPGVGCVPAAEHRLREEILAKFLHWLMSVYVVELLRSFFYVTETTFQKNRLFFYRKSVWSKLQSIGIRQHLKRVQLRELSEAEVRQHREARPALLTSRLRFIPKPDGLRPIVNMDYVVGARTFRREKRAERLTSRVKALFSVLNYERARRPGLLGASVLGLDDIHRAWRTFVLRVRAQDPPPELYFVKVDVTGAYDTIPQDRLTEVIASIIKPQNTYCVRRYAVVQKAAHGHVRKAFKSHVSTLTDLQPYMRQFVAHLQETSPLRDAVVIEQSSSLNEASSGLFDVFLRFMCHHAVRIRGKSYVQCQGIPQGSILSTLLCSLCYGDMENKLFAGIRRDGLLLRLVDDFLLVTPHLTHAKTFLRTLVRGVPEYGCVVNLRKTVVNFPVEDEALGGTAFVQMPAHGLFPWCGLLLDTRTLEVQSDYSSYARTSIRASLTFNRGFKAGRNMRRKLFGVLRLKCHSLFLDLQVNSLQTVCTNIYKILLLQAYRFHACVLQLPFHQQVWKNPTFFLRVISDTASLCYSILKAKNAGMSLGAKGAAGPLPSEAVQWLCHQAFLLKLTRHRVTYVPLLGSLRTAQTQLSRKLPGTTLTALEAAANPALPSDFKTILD

The term IC50 denotes the concentration at which inhibition is half-maximal. With `Cc1nc(C)c(C)nc1C` [LIGUSTRAZINE], the IC50 with U2OS was 54.7 µg/mL (≈ 402 µM); in the data set on MG-63, 10.3 µg/mL (≈ 75.6 µM); in the data set on SAOS-2, 24.7 µg/mL (≈ 181 µM).

On to `CCn1nc(C2CCN(C(=O)CCO)CC2)nc1-c1cnc(N)c(-c2nnc(C(C)(C)C)o2)n1` [AZD-8835], for which, in data set [1], the concentration for half-maximal inhibition (IC50) is 930 nM.

For the compound `CN(CCCN(C)CCN1C(=O)c2cccc3c2c(cc2nccnc23)C1=O)CCN1C(=O)c2cccc3c2c(cc2nccnc23)C1=O`, the IC50 was determined as 80 nM in the data set with HeLa, 80 nM with PC-3 and 20 nM in the data set with HT-29.

On to `Cc1cccc(-c2cnc3cccnc3n2)c1`, for which the half-maximal inhibitory concentration (IC50) turned out to be 500 nM against Cholinesterase and 890 nM at Acetylcholinesterase.

Broadly, the inhibition is the share of the control response that was lost under treatment. As for `Cn1cc(-c2cnc3ccn(S(=O)(=O)c4ccccc4)c3n2)cn1`, the values for the inhibition in [2] and in data set [3] were 92.5% and 93.3%, respectively.

In the case of `COC(=O)c1sc2nccnc2c1Nc1ccccc1OC`, the IC50 at 48 h in data set [4] was found to be 21300 nM.

In the data set on HCT-116, `C[C@@H]1[C@]2(O[C@H]3C=C4[C@@H]5CC[C@H]6Cc7nc8c(nc7C[C@]6(C)[C@H]5C[C@@H](O)[C@]4(C)[C@]31O)C[C@@H]1CC[C@H]3C4=CC5O[C@@]6(CCC(C)(C)O6)[C@@H](C)[C@@H]5[C@@]4(C)[C@H](O)C[C@@H]3[C@@]1(C)C8)O[C@](C)(COC(=O)CNC(=O)Cc1cc(=O)oc3cc(N(C)C)ccc13)C[C@H]2O` (stereo partly specified) gave a concentration for half-maximal inhibition (IC50) of 84 nM.

In the case of `CC(C)N1C[C@H]2C[C@@H]1CN2c1ccc(Nc2nc(-c3ccc4cn[nH]c4c3)cn3ccnc23)cc1`, the half-maximal inhibitory concentration (IC50) in the data set with A549 amounted to 830 nM; with NCI-H460, 1480 nM; in the data set with OVCAR-5 it was 1530 nM; in the data set on HEY, 1010 nM; in the data set with Caco-2, 7390 nM; in the data set on ES-2, 1960 nM. Also, the IC50 in the data set with SW626 is 9170 nM; in the data set on SK-OV-3, 760 nM; in the data set on NCI-H1299, 720 nM.

For `Brc1ccc(CSc2nnc(-c3cnccn3)s2)cc1`, the IC50 in data set [5] came to 1240 nM; with HepG2, 780 nM.

As for `CC1c2nccnc2C[C@]2(C)[C@H]3C(=O)C=C4[C@@H]5[C@@H](C)[C@H](C)CC[C@]5(C)CC[C@@]4(C)[C@]3(C)CC[C@@H]12` (stereo partly specified), the IC50 is 15700 nM in the data set on A2780, 12000 nM in the data set with A-375, 22700 nM in the data set on HT-29 and above 30000 nM in the data set with FaDu.

What is called EC50 is the midpoint of the concentration-response curve. For `Cc1cnc(COC(=O)c2ccccc2)cn1`, the EC50 with Rhizoctonia solani turned out to be 0.021 µg/mL (≈ 0.092 µM).

Turning to `O=C1c2cc3ccccc3n2C(=O)C2Cc3ccncc3N12` (stereo unspecified), the Activity with MCF7 is recorded as 50.6%.

`O=[N+]([O-])c1cccc(-c2cnc3cccnc3n2)c1`: the IC50 was found to be 1890 nM at Cholinesterase and 466 nM against Acetylcholinesterase.

On to `CN1CCN(c2cnc(C(=O)Nc3cc(-c4cccs4)ccc3[N+](=O)[O-])cn2)CC1`, for which the IC50 turned out to be 70 nM on Histone deacetylase 1, 260 nM on Histone deacetylase 2 and 6100 nM at Histone deacetylase 3.

Regarding `O=C(OCc1cnccn1)c1ccccc1`, the EC50 in the data set with Rhizoctonia solani is 0.02 µg/mL (≈ 0.0934 µM).
